Source: US20230190760A1, “ADVANTAGEOUS THERAPIES FOR DISORDERS MEDIATED BY IKAROS OR AIOLOS” (C4 Therapeutics, Inc., priority 2020, published 2023)

Assays:
[1] = tested on: Caspase 3/7 activity in NCIH929 multiple myeloma cells; test: Apoptosis induction, Caspase 3/7 activity in NCIH929 cells; format: cell-based; conditions: Homo sapiens, NCI-H929, 72 h, read-out: EC50, caspase 3/7 activity
Procedure: 30 μL NCIH929 cells were seeded into the 384-well plates in RPMI medium containing 10% FBS and 0.05 mM 2-mercaptoethanol at a cell density of 1000 cells per well. Cells treated in the absence of the test compound were the negative control. Following compound treatment, cells were incubated at 37° C. with 5% CO2 for 72 hr. 30 μL reconstituted Caspase 3/7 Assay detection reagent was added to each well and luminescence was acquired on EnVision™ Multilabel Reader (PerkinElmer, Santa Clara, Calif., USA).

[2] = tested on: NCI-H929 multiple myeloma tumors; test: NCI-H929 multiple myeloma xenograft, NOD SCID mice (Example 13); format: in vivo; conditions: 3000 μg/kg PO QD
Procedure: Compound 1 efficacy in two multiple myeloma cell lines (NC-H929) and (RPMI-8226) was evaluated at four different doses: 3 μg/kg, 10 μg/kg, 30 μg/kg, and 100 μg/kg. Compound 1 was administered QD (every day) orally (PO). […]
For the NCI-H929 cells, the xenograft study was conducted in female NOD SCID mice bearing NCI-H929 multiple myeloma tumors.
(§1) Statistical analysis was performed using two-way analysis of variance (ANOVA). Data are expressed as MTV±SEM.

[3] = tested on: RPMI-8226 tumors; test: RPMI-8226 xenograft, crossover from pomalidomide to Compound 1; format: in vivo, mice; conditions: 3000 μg/kg/day for 17 days
Procedure: Vehicle treated animals were treated for 28 days until tumors reached a MTV of 2211 mm^3. […] Data are expressed as MTV±SEM.
Tumor growth was monitored throughout the study. […] Measurements were twice weekly. The health of the mice was monitored, and noteworthy clinical observations were recorded. Acceptable toxicity was defined as a group's mean BW loss of less than 20% during the study and not more than one treatment related death among ten treated animals, or 10%.
Animals were weighed on a twice weekly schedule.

[4] = tested on: REC1 mantle cell lymphoma tumors; test: REC1 mantle cell lymphoma xenograft, balb/c nude mice; format: in vivo; conditions: Compound 1 10, 30, or 100 μg/kg; pomalidomide 3000 μg/kg; 18 days
Procedure: A xenograft study was conducted in female balb/c nude mice bearing REC1 mantle cell lymphoma tumors.
as §1

[5] = tested on: TMD8 DLBCL tumors; test: TMD8 DLBCL xenograft, NOD SCID mice; format: in vivo; conditions: Compound 1 100 μg/kg; pomalidomide 3000 μg/kg; 18 days
Procedure: A xenograft study was also conducted in female NOD SCID mice bearing TMD8 DLBCL tumors.
as §1

[6] = tested on: OCI-LY10; test: Anti-proliferative activity, 96 hours; conditions: Homo sapiens, OCI-Ly10, 96 h
[7] = tested on: TMD8; test: Anti-proliferative activity, 96 hours; conditions: Homo sapiens, TMD8, 96 h
[8] = tested on: SU-DHL-2; test: Anti-proliferative activity, 96 hours; conditions: Homo sapiens, SU-DHL-2, 96 h
[9] = tested on: KARPASS422; test: Anti-proliferative activity, 96 hours
[10] = tested on: Pfeiffer; test: Anti-proliferative activity, 96 hours; conditions: Homo sapiens
[11] = tested on: RL; test: Anti-proliferative activity, 96 hours; conditions: Homo sapiens
[12] = tested on: DOHH-2; test: Anti-proliferative activity, 96 hours; conditions: Homo sapiens, DOHH-2, 96 h
[13] = tested on: WSU-DLCL2; test: Anti-proliferative activity, 96 hours; conditions: Homo sapiens, WSUDLCL2, 96 h
[14] = tested on: SU-DHL-5; test: Anti-proliferative activity, 96 hours; conditions: Homo sapiens, SU-DHL-5, 96 h
[15] = tested on: Farage; test: Anti-proliferative activity, 96 hours
[16] = tested on: SU-DHL-1; test: Anti-proliferative activity, 96 hours; conditions: Homo sapiens, SU-DHL-1, 96 h
[17] = tested on: KIJK; test: Anti-proliferative activity, 96 hours
[18] = tested on: DL40; test: Anti-proliferative activity, 96 hours
[19] = tested on: SR; test: Anti-proliferative activity, 96 hours; conditions: Homo sapiens
[20] = tested on: HuT 102; test: Anti-proliferative activity, 96 hours; conditions: HuT-102, 96 h
[21] = tested on: HH; test: Anti-proliferative activity, 96 hours; conditions: Homo sapiens
[22] = tested on: Mino; test: Anti-proliferative activity, 96 hours; conditions: Homo sapiens
[23] = tested on: Rec-1; test: Anti-proliferative activity, 96 hours; conditions: Homo sapiens, Rec1, 96 h
[24] = tested on: Maver-1; test: Anti-proliferative activity, 96 hours; conditions: Homo sapiens, Maver1, 96 h
[25] = tested on: Jeko-1; test: Anti-proliferative activity, 96 hours; conditions: Homo sapiens, JeKo-1, 96 h
[26] = tested on: MM.1S; test: Anti-proliferative activity, 96 hours; conditions: Homo sapiens, MM1.S
[27] = tested on: OPM-2; test: Anti-proliferative activity, 96 hours; conditions: Homo sapiens, OPM-2, 96 h
[28] = tested on: KMM-1; test: Anti-proliferative activity, 96 hours; conditions: KMM-1, 96 h
[29] = tested on: H929; test: Anti-proliferative activity, 96 hours; conditions: Homo sapiens, NCI-H929, 96 h
[30] = tested on: MM.1R; test: Anti-proliferative activity, 96 hours
[31] = tested on: LP-1; test: Anti-proliferative activity, 96 hours; conditions: Homo sapiens, LP-1, 96 h
[32] = tested on: RPMI 8226; test: Anti-proliferative activity, 96 hours; conditions: Homo sapiens, RPMI-8226, 96 h
[33] = tested on: KMS-26; test: Anti-proliferative activity, 96 hours; conditions: KMS-26, 96 h
[34] = tested on: NCIH929 cells; test: NCI-H929 viability assay (CellTiter-Glo); conditions: 96 hours
Procedure: NCIH929 cell viability was determined based on quantification of ATP using CellTiter-Glo®2.0 luminescent Assay kit, which signals the presence of metabolically-active cells. Briefly, test compound was added to 384-well plates at a top concentration of 1 μM with 10 points, half log titration in duplicates. NCIH929 cells were seeded into the 384-well plates in RPMI medium containing 10% FBS and 0.05 mM 2-mercaptoethanol at a cell density of 750 cells per well. Cells treated in the absence of the test compound were the negative control and cells treated in the absence of CellTiter-Glo® 2.0 were the positive control. Cells treated with the test compounds were incubated at 37° C. with 5% CO2 for 96 hr. CellTiter-Glo reagent was then added to the cells and Luminescence was acquired on EnVision™ Multilabel Reader (PerkinElmer, Santa Clara, Calif., USA). % Viability was determined by normalizing the signal with positive and DMSO treated negative controls on the same microtiter plate. […] Curve fit and IC502 determination was performed by 4 parametric regression analysis.

[35] = tested on: IMiD-resistant NCIH929 cells; test: Growth of IMiD-resistant NCIH929 cells (CellTiter-Glo); conditions: at concentrations up to 10 μM
Procedure: Briefly, test compound was added to 384-well plates at a top concentration of 10 μM with 14 points, half log titration in duplicates. NCIH929 cells were seeded into the 384-well plates in RPMI medium containing 10% FBS and 0.05 mM 2-mercaptoethanol at a cell density of 750 cells per well. Cells treated in the absence of the test compound were the negative control and cells treated in the absence of CellTiter-Glo® 2.0 were the positive control. Cells treated with the test compounds were incubated at 37° C. with 5% CO2 for 96 hr. CellTiter-Glo reagent was then added to the cells and luminescence was acquired on EnVision™ Multilabel Reader (PerkinElmer, Santa Clara, Calif., USA). % Viability was determined by normalizing the signal with positive and DMSO treated negative controls on the same microtiter plate.

[36] = tested on: Caspase 3/7 activity in TMD8 cells; test: Apoptosis induction, Caspase 3/7 activity in TMD8 cells; conditions: Homo sapiens, TMD8, 48 h, read-out: EC50, caspase 3/7 activity
Procedure: 30 μL TMD8 cells were seeded into the 384-well plates in RPMI medium containing 10% FBS at a cell density of 2000 cells per well. Cells treated in the absence of the test compound were the negative control. Following compound treatment, cells were incubated at 37° C. with 5% CO2 for 48 hr. 30 μL reconstituted Caspase 3/7 Assay detection reagent was added to each well and luminescence was acquired on EnVision™ Multilabel Reader (PerkinElmer, Santa Clara, Calif., USA).

[37] = target: IKZF1 (Homo sapiens, UniProt Q13422+Q96SW2)
Sequence of IKZF1 (Q13422 whole entry): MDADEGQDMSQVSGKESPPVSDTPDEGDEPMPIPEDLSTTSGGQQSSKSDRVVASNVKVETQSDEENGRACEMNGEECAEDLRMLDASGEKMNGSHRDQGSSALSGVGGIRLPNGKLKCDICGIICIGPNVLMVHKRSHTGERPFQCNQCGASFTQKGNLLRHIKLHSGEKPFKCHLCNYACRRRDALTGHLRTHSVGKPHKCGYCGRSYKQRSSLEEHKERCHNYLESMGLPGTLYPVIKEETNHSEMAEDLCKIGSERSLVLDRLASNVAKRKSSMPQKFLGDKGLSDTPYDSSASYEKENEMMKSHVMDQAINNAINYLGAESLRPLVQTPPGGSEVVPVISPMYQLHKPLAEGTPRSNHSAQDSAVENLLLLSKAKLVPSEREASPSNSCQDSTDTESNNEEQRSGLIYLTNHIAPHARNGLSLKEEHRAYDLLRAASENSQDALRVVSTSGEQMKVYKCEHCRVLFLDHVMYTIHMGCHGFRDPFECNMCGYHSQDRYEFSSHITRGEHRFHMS
Sequence of IKZF1 (Q96SW2 whole entry): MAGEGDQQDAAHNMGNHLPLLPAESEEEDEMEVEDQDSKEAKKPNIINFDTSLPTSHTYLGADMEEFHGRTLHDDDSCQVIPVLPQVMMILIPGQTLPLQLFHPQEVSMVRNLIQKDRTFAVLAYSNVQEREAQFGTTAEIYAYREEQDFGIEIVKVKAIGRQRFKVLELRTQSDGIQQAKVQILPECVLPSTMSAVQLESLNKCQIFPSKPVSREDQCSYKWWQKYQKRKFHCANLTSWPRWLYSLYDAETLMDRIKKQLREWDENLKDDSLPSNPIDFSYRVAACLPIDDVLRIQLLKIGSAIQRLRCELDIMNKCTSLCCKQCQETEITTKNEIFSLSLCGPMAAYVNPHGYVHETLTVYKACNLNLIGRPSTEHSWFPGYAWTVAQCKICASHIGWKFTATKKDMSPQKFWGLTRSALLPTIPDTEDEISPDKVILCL
Sequence of IKZF1 (Q16531 2-1140 partner limits assumed): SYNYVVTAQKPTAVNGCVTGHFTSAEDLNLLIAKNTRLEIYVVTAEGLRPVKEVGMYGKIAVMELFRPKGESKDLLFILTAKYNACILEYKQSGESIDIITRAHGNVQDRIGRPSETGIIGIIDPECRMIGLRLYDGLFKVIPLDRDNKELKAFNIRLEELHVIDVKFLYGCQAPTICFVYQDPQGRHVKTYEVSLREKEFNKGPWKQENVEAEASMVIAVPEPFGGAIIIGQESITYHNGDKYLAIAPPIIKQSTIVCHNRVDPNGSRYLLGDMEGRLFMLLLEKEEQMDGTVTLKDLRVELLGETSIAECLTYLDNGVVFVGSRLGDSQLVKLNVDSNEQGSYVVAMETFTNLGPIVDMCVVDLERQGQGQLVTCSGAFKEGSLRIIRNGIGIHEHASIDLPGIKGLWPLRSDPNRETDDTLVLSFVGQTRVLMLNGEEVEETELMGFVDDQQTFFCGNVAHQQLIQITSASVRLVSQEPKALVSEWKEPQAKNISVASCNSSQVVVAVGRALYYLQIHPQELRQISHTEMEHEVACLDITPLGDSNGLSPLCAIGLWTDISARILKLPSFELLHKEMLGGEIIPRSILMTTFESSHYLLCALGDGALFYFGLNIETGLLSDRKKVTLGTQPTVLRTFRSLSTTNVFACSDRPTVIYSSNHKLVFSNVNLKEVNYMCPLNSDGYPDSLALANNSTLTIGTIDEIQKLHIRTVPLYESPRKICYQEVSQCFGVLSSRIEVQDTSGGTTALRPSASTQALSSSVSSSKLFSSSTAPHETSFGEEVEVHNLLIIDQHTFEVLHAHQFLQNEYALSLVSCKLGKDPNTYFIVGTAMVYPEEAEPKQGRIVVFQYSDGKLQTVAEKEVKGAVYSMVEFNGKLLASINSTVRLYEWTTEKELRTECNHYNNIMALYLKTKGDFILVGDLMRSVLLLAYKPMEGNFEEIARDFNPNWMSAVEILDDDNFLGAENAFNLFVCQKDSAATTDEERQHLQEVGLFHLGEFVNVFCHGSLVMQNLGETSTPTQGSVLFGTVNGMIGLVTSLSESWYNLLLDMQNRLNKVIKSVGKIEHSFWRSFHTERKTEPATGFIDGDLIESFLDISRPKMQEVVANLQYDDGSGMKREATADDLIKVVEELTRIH
Procedure: Endogenous expression of IKZF1 in NCIH929 cells was determined by addition of N-terminal HiBiT tag to the NCIH929 cell line using CRISPR-Cas9. Briefly, test compound was added to 384-well plates at a top concentration of 1 μM with 10 points, half log titration in duplicates. NCIH929 cells expressing HiBiT-tagged IKZF1 were seeded into the 384-well plates in RPMI medium containing 10% FBS and 0.05 mM 2-mercaptoethanol at a cell density of 15000 cells per well. Cells treated in the absence of the test compound were the negative control and wells containing media only were the positive control. Following compound treatment, cells were incubated at 37° C. with 5% CO2 for 1.5 hr. HiBiT signal was determined using Nano-Glo™ HiBiT Lytic Assay System (Promega, N3050) and luminescence was acquired on EnVision™ Multilabel Reader (PerkinElmer, Santa Clara, Calif., USA). % IKZF1 remaining was determined by normalizing the signal with positive and negative controls on the same microtiter plate. […] Curve fit and IC50 determination was performed by 4 parametric regression analysis.
NCIH929 cells expressing HiBiT-tagged IKZF1 were seeded into the 384-well plates in RPMI medium containing 10% FBS and 0.05 mM 2-mercaptoethanol at a cell density of 15000 cells per well. Cells treated in the absence of the test compound were the negative control and wells containing media only were the positive control. Following compound treatment, cells were incubated at 37° C. with 5% CO2 for 1 or 2 hr. HiBiT signal was determined using Nano-Glo™ HiBiT Lytic Assay System (Promega, N3050) and luminescence was acquired on EnVision™ Multilabel Reader (PerkinElmer, Santa Clara, Calif., USA). % IKZF1 remaining was determined by normalizing the signal with positive and negative controls on the same microtiter plate. Curve fit and IC50 determination was performed by 4 parametric regression analysis.

Nc1cccc2c1C(=O)N(C1CCC(=O)NC1=O)C2=O (stereo not drawn) [Pomalidomide, reference compound]
EC50 [1]: 0.407 µM | Statistical Significance Compared to Vehicle [2]: 0.718 | tumor response [3]: no response | tumor volume [4]: increased | tumor volume [5]: increased | IC50 [6]: 0.0477 µM | IC50 [7]: 0.327 µM | IC50 [8]: > 10 µM | IC50 [9]: 0.0244 µM | IC50 [10]: > 10 µM | IC50 [11]: > 10 µM | IC50 [12]: 1.15 µM | IC50 [13]: > 10 µM | IC50 [14]: > 10 µM | IC50 [15]: > 10 µM | IC50 [16]: 0.378 µM | IC50 [17]: 4.33 µM | IC50 [18]: > 10 µM | IC50 [19]: > 10 µM | IC50 [20]: > 10 µM | IC50 [21]: > 10 µM | IC50 [22]: 0.426 µM | IC50 [23]: 0.0448 µM | IC50 [24]: > 10 µM | IC50 [25]: > 10 µM | IC50 [26]: 0.071 µM | IC50 [27]: 0.0933 µM | IC50 [28]: 0.527 µM | IC50 [29]: 0.171 µM | IC50 [30]: 0.193 µM | IC50 [31]: 0.576 µM | IC50 [32]: > 10 µM | IC50 [33]: 2.09 µM | Mean Emax (%) ± SD, H929 Viability ([34]; % viability): 15.6 ± 4.2% | IC50 ([34]; read-out: Mean IC50 (nM), H929 Viability): 141 nM | growth inhibition [35]: less than 50% | EC50 [36]: 1.2 µM | Emax ([37]; NCI-H929, read-out: Mean Emax (%) ± SD, IKZF1 Degradation): 55.7 ± 6% | IKZF1 degradation ([37]; after 1 hour treatment): less than 25%
